“And” between values parts separate entries of the source, which are not always exact repeats. Identical values can stand only once. Toxic doses and inconclusive results are not listed. Rule as the data show it: active = T/C of 150% or more; inactive = T/C below 125%.
Test system: L1210 leukemia ip in BDF1 mice, survival T/C
Experiment: NCI In Vivo Anticancer Drug Screen. Data for tumor model L1210 Leukemia (intraperitoneal) in B6D2F1 (BDF1) mice
Settings: endpoint: mean survival time, higher = longer survival
How it was run: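 Transplantable tumor model; survival measured in treated vs vehicle control mice. Value = treated/control.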

[1] = dose: 100.0 mg/kg/injection, schedule: Q01DX001 (ip), vehicle: saline
[2] = dose: 200.0 mg/kg/injection, schedule: Q01DX001 (ip), vehicle: saline
[3] = dose: 400.0 mg/kg/injection, schedule: Q01DX001 (ip), vehicle: saline
[4] = dose: 100.0 mg/kg/injection, schedule: Q01DX001 (ip), vehicle: carboxymethylcellulose (CMC)
[5] = dose: 200.0 mg/kg/injection, schedule: Q01DX001 (ip), vehicle: carboxymethylcellulose (CMC)
[6] = dose: 100.0 mg/kg/injection, schedule: Q01DX009 (ip), vehicle: Klucel (hydroxypropylcellulose) (HPC)
[7] = dose: 100.0 mg/kg/injection, schedule: Q04DX003 (ip), vehicle: Klucel (hydroxypropylcellulose) (HPC)
[8] = dose: 200.0 mg/kg/injection, schedule: Q01DX009 (ip), vehicle: Klucel (hydroxypropylcellulose) (HPC)
[9] = dose: 200.0 mg/kg/injection, schedule: Q04DX003 (ip), vehicle: Klucel (hydroxypropylcellulose) (HPC)
[10] = dose: 400.0 mg/kg/injection, schedule: Q01DX009 (ip), vehicle: Klucel (hydroxypropylcellulose) (HPC)
[11] = dose: 400.0 mg/kg/injection, schedule: Q04DX003 (ip), vehicle: Klucel (hydroxypropylcellulose) (HPC)
[12] = dose: 100.0 mg/kg/injection, schedule: Q04DX002 (ip), vehicle: saline with Tween-80
[13] = dose: 200.0 mg/kg/injection, schedule: Q04DX002 (ip), vehicle: saline with Tween-80
[14] = dose: 400.0 mg/kg/injection, schedule: Q04DX002 (ip), vehicle: saline with Tween-80

Measured: T/C

CC1(C)S[C@@H]2[C@H](NC(=O)Cc3ccc([N+](=O)[O-])cc3)CN2[C@H]1N=C=O
inactive: [1] 93 % of control | [2] 91 % of control | [3] 98 % of control

NC(CCC1SCCS1)C(=O)O (stereo not given)
inactive: [4] 104 % of control | [5] 96 % of control | dose: 400.0 mg/kg/injection, schedule: Q01DX001 (ip), vehicle: carboxymethylcellulose (CMC) 98 % of control

COC(=O)C1CC(C)(C)N(C)C1(C)C (stereo not given)
inactive: [6] 101 % of control | [7] 100 % of control | [8] 106 % of control and 92 % of control | [9] 103 % of control

CCOP(=O)(OCC)O/N=C(/C)c1cccc([N+](=O)[O-])c1
inactive: dose: 5.0 mg/kg/injection, schedule: Q01DX001 (ip), vehicle: saline 100 % of control | dose: 10.0 mg/kg/injection, schedule: Q01DX001 (ip), vehicle: saline 97 % of control

CCCCC(O)(C#CC(O)(CC)CCCC)CC (stereo not given)
inactive: dose: 100.0 mg/kg/injection, schedule: Q01DX001 (ip), vehicle: other 103 % of control | dose: 200.0 mg/kg/injection, schedule: Q01DX001 (ip), vehicle: other 105 % of control | dose: 400.0 mg/kg/injection, schedule: Q01DX001 (ip), vehicle: other 102 % of control

CC(O)c1ccc(-c2ccccc2)cc1 (stereo not given)
inactive: [6] 94 % of control | [7] 95 % of control | [8] 97 % of control | [9] 101 % of control | [10] 111 % of control | [11] 98 % of control

CCCCCCCCCCCC1CCCC2CCCCC12 (stereo not given)
inactive: [12] 91 % of control | [13] 91 % of control | [14] 100 % of control

O=C(Nc1ccccc1)NC(O)C(Cl)(Cl)Cl (stereo not given)
inactive: [7] 95 % of control | [9] 95 % of control | [11] 98 % of control

CCCCCCCCN(c1ccc(C#N)cc1)S(=O)(=O)c1ccc(C)cc1
inactive: dose: 75.0 mg/kg/injection, schedule: Q01DX009 (ip), vehicle: Klucel (hydroxypropylcellulose) (HPC) 92 % of control | dose: 150.0 mg/kg/injection, schedule: Q01DX009 (ip), vehicle: Klucel (hydroxypropylcellulose) (HPC) 87 % of control | dose: 300.0 mg/kg/injection, schedule: Q01DX009 (ip), vehicle: Klucel (hydroxypropylcellulose) (HPC) 97 % of control

CSc1ncnc2c1nnn2C1OC(CO)C(O)C1O (stereo not given)
inactive: dose: 12.5 mg/kg/injection, schedule: Q01DX001 (ip), vehicle: saline 97 % of control | dose: 25.0 mg/kg/injection, schedule: Q01DX001 (ip), vehicle: saline 103 % of control | dose: 50.0 mg/kg/injection, schedule: Q01DX001 (ip), vehicle: saline 115 % of control | dose: 75.0 mg/kg/injection, schedule: Q01DX001 (ip), vehicle: saline 114 % of control | [1] 110 % of control | dose: 150.0 mg/kg/injection, schedule: Q01DX001 (ip), vehicle: saline 110 % of control

Cc1cc(C)n(/N=C/c2ccccn2)c(=O)c1C#N
inactive: dose: 75.0 mg/kg/injection, schedule: Q04DX003 (ip), vehicle: Klucel (hydroxypropylcellulose) (HPC) 94 % of control | dose: 100.0 mg/kg/injection, schedule: Q01DX001 (ip), vehicle: Klucel (hydroxypropylcellulose) (HPC) 97 % of control | dose: 150.0 mg/kg/injection, schedule: Q04DX003 (ip), vehicle: Klucel (hydroxypropylcellulose) (HPC) 97 % of control | dose: 200.0 mg/kg/injection, schedule: Q01DX001 (ip), vehicle: Klucel (hydroxypropylcellulose) (HPC) 97 % of control | dose: 300.0 mg/kg/injection, schedule: Q04DX003 (ip), vehicle: Klucel (hydroxypropylcellulose) (HPC) 100 % of control | dose: 400.0 mg/kg/injection, schedule: Q01DX001 (ip), vehicle: Klucel (hydroxypropylcellulose) (HPC) 102 % of control

COC1C(/C=C/C(C)=O)OC2OC(C)(C)OC21 (stereo not given)
inactive: dose: 6.25 mg/kg/injection, schedule: Q01DX009 (ip), vehicle: saline 105 % of control | dose: 12.5 mg/kg/injection, schedule: Q01DX009 (ip), vehicle: saline 105 % of control | dose: 25.0 mg/kg/injection, schedule: Q01DX009 (ip), vehicle: saline 107 % of control | dose: 50.0 mg/kg/injection, schedule: Q01DX009 (ip), vehicle: saline 98 % of control | dose: 100.0 mg/kg/injection, schedule: Q01DX009 (ip), vehicle: saline 100 % of control | dose: 200.0 mg/kg/injection, schedule: Q01DX009 (ip), vehicle: saline 98 % of control

O=[N+]([O-])c1ccc(N=Nc2ccc(O)cc2)c([N+](=O)[O-])c1
inactive: dose: 50.0 mg/kg/injection, schedule: Q01DX001 (ip), vehicle: carboxymethylcellulose (CMC) 100 % of control | [4] 106 % of control | [5] 105 % of control

Cc1ccc(S(=O)(=O)N(CCC#N)CCC#N)cc1
inactive: dose: 25.0 mg/kg/injection, schedule: Q01DX009 (ip), vehicle: Klucel (hydroxypropylcellulose) (HPC) 106 % of control | dose: 50.0 mg/kg/injection, schedule: Q01DX009 (ip), vehicle: Klucel (hydroxypropylcellulose) (HPC) 112 % of control | [6] 97 % of control and 101 % of control | [8] 92 % of control | [10] 96 % of control

Cc1ccc(C)c(NC(=O)OCc2ccco2)c1
inactive: dose: 100.0 mg/kg/injection, schedule: Q01DX001 (ip), vehicle: saline with Tween-80 97 % of control | dose: 100.0 mg/kg/injection, schedule: Q01DX009 (ip), vehicle: saline with Tween-80 107 % of control and 89 % of control | [12] 93 % of control and 100 % of control | dose: 100.0 mg/kg/injection, schedule: Q04DX003 (ip), vehicle: saline with Tween-80 105 % of control | dose: 200.0 mg/kg/injection, schedule: Q01DX001 (ip), vehicle: saline with Tween-80 95 % of control | dose: 200.0 mg/kg/injection, schedule: Q01DX009 (ip), vehicle: saline with Tween-80 100 % of control and 89 % of control | [13] 96 % of control and 98 % of control | dose: 200.0 mg/kg/injection, schedule: Q04DX003 (ip), vehicle: saline with Tween-80 93 % of control | dose: 400.0 mg/kg/injection, schedule: Q01DX001 (ip), vehicle: saline with Tween-80 95 % of control | dose: 400.0 mg/kg/injection, schedule: Q01DX009 (ip), vehicle: saline with Tween-80 100 % of control and 89 % of control | [14] 93 % of control and 102 % of control | dose: 400.0 mg/kg/injection, schedule: Q04DX003 (ip), vehicle: saline with Tween-80 93 % of control

CCCCCCCCOc1nccc(N)n1
inactive: dose: 75.0 mg/kg/injection, schedule: Q01DX001 (ip), vehicle: saline with Tween-80 105 % of control

O=C(NCCBr)c1ccc(N=Nc2ccccc2)cc1
inactive: dose: 20.0 mg/kg/injection, schedule: Q01DX009 (ip), vehicle: Klucel (hydroxypropylcellulose) (HPC) 95 % of control | dose: 20.0 mg/kg/injection, schedule: Q04DX003 (ip), vehicle: Klucel (hydroxypropylcellulose) (HPC) 103 % of control | dose: 40.0 mg/kg/injection, schedule: Q01DX009 (ip), vehicle: Klucel (hydroxypropylcellulose) (HPC) 95 % of control | dose: 40.0 mg/kg/injection, schedule: Q04DX003 (ip), vehicle: Klucel (hydroxypropylcellulose) (HPC) 103 % of control | dose: 80.0 mg/kg/injection, schedule: Q01DX009 (ip), vehicle: Klucel (hydroxypropylcellulose) (HPC) 91 % of control | dose: 80.0 mg/kg/injection, schedule: Q04DX003 (ip), vehicle: Klucel (hydroxypropylcellulose) (HPC) 105 % of control

CCOC(=N)CCNS(=O)(=O)c1ccc(C)cc1
inactive: [1] 104 % of control | [2] 98 % of control | [3] 115 % of control

Cc1ccc(NN)cc1Cl
inactive: [7] 105 % of control | [9] 91 % of control

— PubChem BioAssay AID248 (DTP/NCI, 2004)
